Results from US4277474A, “Treatment of allergic symptoms with propanone derivatives” (Nippon Zoki Pharmaceutical Co., Ltd., priority 1978, dated 1981).
Counter-ions that a name gives are not always drawn. Like-named read-outs stand apart in the source and are kept apart here.

What was measured:
[1] = system: SRS-A; assay: Anti-SRS-A effect on guinea pig's ileum (Magnus method)
Description: The anti-SRS-A effect of the compounds according to the present invention on guinea pig's ileum was measured by Magnus method. […] One minute thereafter, the ileum contraction inhibiting rate (%) was measured with use of 1 ml of 80% ethanol solution of SRS-A (150 mg/ml).

[2] = system: Peritoneal cavity cells; assay: Inhibitory effect on histamine release from sensitized peritoneal cavity cells; assay type: cell-based, rat (Wistar-strain); settings: for inhibition at 50 µM / inhibition at 100 µM: read-out: Inhibitory effect on histamine release; for inhibition at 200 µM: 0.2 mM
Description: The inhibitory effect on histamine release of the compounds according to the present invention was investigated as follows. […] These cells were suspended in a phosphoric acid buffer solution (containing 0.1% of gelatin) and each 0.5 ml portion of this suspension was taken in a polyethylene tube. 1 ml each of solutions of various concentrations of test compound and 0.5 ml of 200 μg/ml of ovalbumin solution were added therein. They were incubated for 20 minutes at 37° C. to measure the histamine release rate. The amount of histamine was measured by a modified Shore method using fluorescence.

[3] = Rattus norvegicus, 0.05 mM, average ± S.E. of 3 or 4 experiments

Compound | ileum contraction inhibiting rate ([1]; 10^-4 g/ml) [%] | ileum contraction inhibiting rate ([1]; 10^-5 g/ml) [%] | ileum contraction inhibiting rate ([1]; 10^-6 g/ml) [%] | inhibition at 50 µM [2, 3] [%] | inhibition at 100 µM ([2]; Rattus norvegicus, 0.1 mM) [%] | other results
COc1ccc(C(=O)C(C)CN2CCCCC2)cc1OC.Cl (centres unmarked) [Example 7, 3',4'-dimethoxy-2-methyl-3-piperidinopropiophenone hydrochloride] | 85.7 ± 0.67 | 8.3 ± 2.85 | 1.0 ± 1.00 | – | – | –
CC(CN1CCCCC1C)C(=O)c1ccc2ccccc2c1 (stereo not drawn) [Example 28, 2-methyl-3-(2-methylpiperidino)-β-propionaphthone hydrochloride] | – | – | – | 18.5 ± 6.5 | 40.7 | –
COc1ccc(C(=O)C(C)CN2CCCCC2)cc1Cl (centres unmarked) [Example 49, 3'-chloro-4'-methoxy-2-methyl-3-piperidinopropiophenone hydrochloride] | – | – | – | – | 38 | –
CCOc1ccc(C(=O)C(C)CN2CCCCC2)cc1.Cl (centres unmarked) [Example 26, 4'-ethoxy-2-methyl-3-piperidinopropiophenone hydrochloride] | 86.7 ± 3.84 | 12.3 ± 6.69 | 6.7 ± 5.24 | – | – | –
CCCCCCc1ccc(C(=O)C(C)CN2CCCCC2)cc1 (centres unmarked) [Example 22, 4'-hexyl-2-methyl-3-piperidinopropiophenone hydrochloride] | – | – | – | 82 ± 1.7 | 87.2 | –
CCCc1ccc(C(=O)C(C)CN2CCCCC2)cc1 (centres unmarked) [Example 36, 4'-n-propyl-2-methyl-3-piperidinopropiophenone hydrochloride] | – | – | – | 23.6 ± 7.7 | – | –
CC(CN1CCCCC1)C(=O)c1cccc2ccccc12 (stereo not drawn) [Example 19, 2-methyl-3-piperidino-α-propionaphthone hydrochloride] | – | – | – | – | – | inhibition at 200 µM ([2]; Rattus norvegicus): 100%
Cc1ccc(C(=O)C(C)CN2CCN(Cc3ccccc3)CC2)cc1 (centres unmarked) [Example 16, 2,4'-dimethyl-3-(4-benzylpiperazino)propiophenone dihydrochloride] | – | – | – | – | – | inhibition at 200 µM ([2]; Rattus norvegicus): 72.4%
COc1ccc2cc(C(=O)CCN3CCCCC3)ccc2c1 [Example 39, 6'-methoxy-3-piperidino-2'-propionaphthone hydrochloride] | – | – | – | – | 85 | –
CC(CN1CCCCC1)C(=O)c1ccc2c(c1)CCCC2 (centres unmarked) [Example 9, 2-methyl-3-piperidino-5',6',7',8'-tetrahydro-2'-propionaphthone hydrochloride] | – | – | – | – | 33.7 | –
Cc1ccc(C(=O)CCN2CCCCC2)cc1C [Example 30, 3',4'-dimethyl-3-piperidinopropiophenone hydrochloride] | – | – | – | 19.4 ± 7.8 | 50.3 | –
Cc1ccc(C(=O)C(C)CN(C)C)cc1.Cl (centres unmarked) [Example 24, 2,4'-dimethyl-3-dimethylaminopropiophenone hydrochloride] | 57.3 ± 5.17 | 7.7 ± 3.67 | 4.3 ± 2.40 | – | – | –
Cc1ccc(C(=O)C(CN2CCCCC2)c2ccccc2)cc1 (centres unmarked) [Example 27, 4'-methyl-2-phenyl-3-piperidinopropiophenone hydrochloride] | – | – | – | – | – | inhibition at 200 µM ([2]; Rattus norvegicus): 78.5%
O=C(O)c1cc(=O)c2c(OCC(O)COc3cccc4oc(C(=O)O)cc(=O)c34)cccc2o1 [DSCG, disodium chromoglicate, reference compound] | – | – | – | 29 ± 6.1 | 70 | Histamine release rate ([2]; 0.01 mM): 36.8%; Net release rate ([2]; 0.01 mM, release not caused by antigen-antibody reaction deducted): 22.9%; inhibition at 10 µM ([2]; Rattus norvegicus, 0.01 mM): 30%
Cc1ccc(C(=O)C(C)CN2CCN(CC(C)C)CC2)cc1.Cl.Cl (centres unmarked) [Example 1, 2,4'-dimethyl-3-(4-isobutylpiperazino)propiophenone dihydrochloride] | 64.7 ± 7.51 | 6.7 ± 3.33 | 0 ± 0 | – | – | –
CCN1CCN(CC(C)C(=O)c2ccc(C)cc2)CC1.Cl.Cl (centres unmarked) [Example 15, 2,4'-dimethyl-3-(4-ethylpiperazino)propiophenone dihydrochloride] | 69.7 ± 3.71 | 20.7 ± 6.12 | 0.3 ± 0.33 | – | – | –
COc1ccc(C(=O)C(C)CN2CCCCC2)cc1.Cl (centres unmarked) [Example 25, 4'-methoxy-2-methyl-3-piperidinopropiophenone hydrochloride] | 80.3 ± 7.22 | 15.0 ± 14.50 | 6.7 ± 6.67 | – | – | –

Compound | ileum contraction inhibiting rate ([1]; 10^-4 g/ml) [%] | ileum contraction inhibiting rate ([1]; 10^-5 g/ml) [%] | ileum contraction inhibiting rate ([1]; 10^-6 g/ml) [%] | inhibition at 50 µM [2, 3] [%] | inhibition at 100 µM ([2]; Rattus norvegicus, 0.1 mM) [%] | other results
COc1ccc2cc(C(=O)C(C)CN3CCCCC3)ccc2c1 (centres unmarked) [Example 40, 6'-methoxy-2-methyl-3-piperidino-2'-propionaphthone hydrochloride] | – | – | – | – | 84 | –
CC(CN(C)C)C(=O)c1ccc2ccccc2c1 (stereo not drawn) [Example 3, 2-methyl-3-dimethylamino-β-propionaphthone hydrochloride] | 91.3 ± 3.84 | 47.0 ± 9.50 | 1.3 ± 0.88 | – | – | –
CCN(CC)CC(C)C(=O)c1ccc(C)cc1.Cl (centres unmarked) [Example 11, 2,4'-dimethyl-3-diethylaminopropiophenone hydrochloride] | 68.0 ± 13.05 | 0.3 ± 0.33 | 3.0 ± 3.00 | – | – | –
CC(CN1CCCC1)C(=O)c1ccc2ccccc2c1 (stereo not drawn) [Example 6, 2-methyl-3-pyrrolidino-β-propionaphthone hydrochloride] | 100.0 ± 0 | 63.0 ± 6.66 | 0.3 ± 0.33 | – | 48 | –
Cc1ccc(C(=O)C(C)CN2CCCC2)cc1.Cl (centres unmarked) [Example 13, 2,4'-dimethyl-3-pyrrolidinopropiophenone hydrochloride] | 80.7 ± 6.98 | 2.7 ± 2.67 | 1.3 ± 1.33 | – | – | –
CC(CN1CCCCC1)C(=O)c1ccc(Cl)c(Cl)c1 (centres unmarked) [Example 50, 3',4'-dichloro-2-methyl-3-piperidinopropiophenone hydrochloride] | – | – | – | – | 73 | –
Cc1ccc(C(=O)C(C)CN2CCN(C)CC2)cc1.Cl.Cl (centres unmarked) [Example 14, 2,4'-dimethyl-3-(4-methylpiperazino)propiophenone dihydrochloride] | 58.0 ± 4.36 | 10.3 ± 7.88 | 10.3 ± 7.98 | – | – | –
Cc1ccc2cc(C(=O)C(C)CN3CCCCC3)ccc2c1 (centres unmarked) [Example 51, 2,6'-dimethyl-3-piperidino-2'-propionaphthone hydrochloride] | – | – | – | – | 37 | –
CCc1ccc(C(=O)C(C)CN2CCCCC2)cc1CC (centres unmarked) [Example 34, 3',4'-diethyl-2-methyl-3-piperidinopropiophenone hydrochloride] | – | – | – | 29.1 ± 7.5 | – | –
COc1cc(C(=O)C(C)CN2CCCCC2)ccc1O (centres unmarked) [Example 18, 4'-hydroxy-3'-methoxy-2-methyl-3-piperidinopropiophenone hydrochloride] | – | – | – | – | – | inhibition at 200 µM ([2]; Rattus norvegicus): 83.7%
CC(CN1CCC(Cc2ccccc2)CC1)C(=O)c1ccc2ccccc2c1 (stereo not drawn) [Example 29, 2-methyl-3-(4-benzylpiperidino)-β-propionaphthone hydrochloride] | – | – | – | 61 ± 3.6 | 98.7 | –
O=C(CCN1CCCCC1)c1ccc2ccccc2c1 [Example 31, 3-piperidino-β-propionaphthone hydrochloride] | – | – | – | – | – | inhibition at 50 µM ([2]; Rattus norvegicus): 53.4 ± 9.1%; inhibition at 100 µM ([2]; Rattus norvegicus): 89.6%
CCC(CN1CCCCC1)C(=O)c1ccc2ccccc2c1 (stereo not drawn) [Example 32, 2-ethyl-3-piperidino-β-propionaphthone hydrochloride] | – | – | – | 27.2 ± 8.1 | 42 | –
CC1CCN(CC(C)C(=O)c2ccc3ccccc3c2)CC1 (stereo not drawn) [Example 23, 2-methyl-3-(4-methylpiperidino)-β-propionaphthone hydrochloride] | – | – | – | 21.4 ± 2.4 | 65.8 | –
CC(CN1CCCCC1)C(=O)c1ccc2c(c1)CCC2 (centres unmarked) [Example 33, 1-(5-indanyl)-2-methyl-3-piperidinopropanone hydrochloride] | – | – | – | 14.4 ± 2.6 | – | –
Cc1ccc(C(=O)C(C)CN2CCOCC2)cc1.Cl (centres unmarked) [Example 12, 2,4'-dimethyl-3-morpholinopropiophenone hydrochloride] | 69.7 ± 12.13 | 20.7 ± 5.61 | 8.3 ± 6.89 | – | – | –
CC1CCCN(CC(C)C(=O)c2ccc3ccccc3c2)C1 (stereo not drawn) [Example 10, 2-methyl-3-(3-methylpiperidino)-β-propionaphthone hydrochloride] | – | – | – | 18 ± 5.4 | 49.9 | –
